Consider 14 compounds from patent US12473296B2, “Perk inhibiting compounds” (HiberCell, Inc., priority 2019, dated 2025).

Chain of PERK (Q9NZJ5 30-1116): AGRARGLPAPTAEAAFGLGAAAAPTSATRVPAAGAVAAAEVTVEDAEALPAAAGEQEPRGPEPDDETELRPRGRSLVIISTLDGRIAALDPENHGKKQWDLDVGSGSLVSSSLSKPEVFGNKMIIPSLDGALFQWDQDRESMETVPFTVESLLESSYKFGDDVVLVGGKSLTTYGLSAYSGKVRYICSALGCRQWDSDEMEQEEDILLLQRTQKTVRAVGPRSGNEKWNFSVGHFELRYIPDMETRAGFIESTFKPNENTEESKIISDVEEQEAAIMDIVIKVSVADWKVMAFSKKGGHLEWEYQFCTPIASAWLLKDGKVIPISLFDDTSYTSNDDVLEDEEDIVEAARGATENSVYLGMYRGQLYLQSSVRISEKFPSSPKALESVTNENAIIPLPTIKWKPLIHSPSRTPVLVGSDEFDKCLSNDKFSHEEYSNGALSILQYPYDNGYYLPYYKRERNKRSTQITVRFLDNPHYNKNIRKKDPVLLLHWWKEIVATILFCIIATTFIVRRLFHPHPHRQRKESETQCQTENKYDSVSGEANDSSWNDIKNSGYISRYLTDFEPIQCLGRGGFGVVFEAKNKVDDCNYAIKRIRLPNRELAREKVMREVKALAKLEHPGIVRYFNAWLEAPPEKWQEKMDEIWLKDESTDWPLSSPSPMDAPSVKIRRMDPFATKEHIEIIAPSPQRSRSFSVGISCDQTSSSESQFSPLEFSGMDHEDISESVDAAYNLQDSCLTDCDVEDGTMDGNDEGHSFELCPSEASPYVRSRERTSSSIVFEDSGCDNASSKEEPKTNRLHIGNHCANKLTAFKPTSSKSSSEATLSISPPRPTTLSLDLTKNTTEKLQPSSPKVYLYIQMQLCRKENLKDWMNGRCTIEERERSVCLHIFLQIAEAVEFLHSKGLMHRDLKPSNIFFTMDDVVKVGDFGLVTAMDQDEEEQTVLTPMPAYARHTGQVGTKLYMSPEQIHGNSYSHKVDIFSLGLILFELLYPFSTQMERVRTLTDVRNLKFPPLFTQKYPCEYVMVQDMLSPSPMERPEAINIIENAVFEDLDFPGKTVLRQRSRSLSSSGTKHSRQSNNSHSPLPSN

This test addresses PERK (Homo sapiens (Human), UniProt Q9NZJ5). Put plainly: PERK cellular assay (TR-FRET, HEK293-EGFP-eIF2α cells, tunicamycin-induced ER stress). The conditions noted are these: tunicamycin 2 hours, read-out: Cellular IC50 (μM) (EIF2a). Type of test: cell-based. Here is the method:
Stable cell lines were created in HEK293 cells using lentiviral particles harboring an expression vector for GFP-eIF2α. Cells were selected using puromycin and enriched using fluorescence activated cell sorting against GFP. HEK293-EGFP-eIF2α cells were plated at 5000 cells/well in 384-well assay plates and incubated overnight at 37° C., 5% CO2. Inhibitor compounds were added to the wells by Echo acoustic dispensing and incubated for 30 minutes at 37° C., 5% CO2 prior to induction of ER stress by addition of tunicamycin to […] for 2 hours. Cells were lysed and TR-FRET was measured in an EnVision plate reader (PerkinElmer). FRET ratio data was normalized to signal from lysates treated with DMSO vehicle control and plotted as percent inhibition against 10-point; 3-fold dilution series of inhibitors. IC50 values were calculated using 4-parameter logistical fitting in XLFit.
On the technique in general: TR-FRET usually uses a lanthanide donor and a delayed reading to cut background.
Consider `Cc1cc(NC(=O)C(O)c2cccc(C(F)(F)F)c2)ccc1-c1cnc(N)c(C(=O)NC(C)C)c1` (centres unmarked) [Example 70, 2-amino-5-(4-(2-hydroxy-2-(3-(trifluoromethyl)phenyl)acetamido)-2-methylphenyl)-N-isopropylnicotinamide], for which the half-inhibitory concentration (IC50) lay within 0.001 to 0.025 µM.
Take `Cc1cc(NC(=O)C(O)c2cccc(C(F)(F)F)c2)ccc1-c1cnc(N)c(C(=O)NC(C)C)c1` (centres unmarked) [Example 71, 2-amino-5-(4-(2-hydroxy-2-(3-(trifluoromethyl)phenyl)acetamido)-2-methylphenyl)-N-isopropylnicotinamide]: the concentration for half-maximal inhibition (IC50) was in the range of 0.501 to 1 µM.
For `Cc1ccccc1C(O)C(=O)Nc1ccc(-c2cnc(N)c(C(=O)NC(C)C)c2)c(Cl)c1` (centres unmarked) [Example 90, 2-amino-5-(2-chloro-4-(2-hydroxy-2-(o-tolyl)acetamido)phenyl)-N-isopropylnicotinamide] the value was 0.051 to 0.1 µM.
For `Cc1ccccc1C(O)C(=O)Nc1ccc(-c2cnc(N)c(C(=O)NC(C)C)c2)c(Cl)c1` (centres unmarked) [Example 91, 2-amino-5-(2-chloro-4-(2-hydroxy-2-(o-tolyl)acetamido)phenyl)-N-isopropylnicotinamide] the value was 0.251 to 0.5 µM; for `Cc1cccc(C(O)C(=O)Nc2ccc(-c3cnc(N)c(C(=O)NC(C)C)c3)c(Cl)c2)c1` (centres unmarked) [Example 92, 2-amino-5-(2-chloro-4-(2-hydroxy-2-(m-tolyl)acetamido)phenyl)-N-isopropylnicotinamide], 0.001 to 0.025 µM.
Then `Cc1cccc(C(O)C(=O)Nc2ccc(-c3cnc(N)c(C(=O)NC(C)C)c3)c(Cl)c2)c1` (centres unmarked) [Example 93, 2-amino-5-(2-chloro-4-(2-hydroxy-2-(m-tolyl)acetamido)phenyl)-N-isopropylnicotinamide], with 0.101 to 0.25 µM; and `Cc1cc(NC(=O)C(O)c2cc(F)cc(F)c2)ccc1-c1cnc(N)c(C(=O)NC2CCC2)n1` (centres unmarked) [Example 140, 3-amino-N-cyclobutyl-6-(4-(2-(3,5-difluorophenyl)-2-hydroxyacetamido)-2-methylphenyl) pyrazine-2-carboxamide], with 0.026 to 0.05 µM; and `Cc1cc(NC(=O)C(O)c2cc(F)cc(F)c2)ccc1-c1cnc(N)c(C(=O)NC2CCC2)n1` (centres unmarked) [Example 141, 3-amino-N-cyclobutyl-6-(4-(2-(3,5-difluorophenyl)-2-hydroxyacetamido)-2-methylphenyl) pyrazine-2-carboxamide], with 0.101 to 0.25 µM.
With `Cc1cc(NC(=O)C(O)c2cc(F)cc(F)c2)ccc1-c1cnc(N)c(C(=O)NC2COC2)n1` (centres unmarked) [Example 142, 3-amino-6-(4-(2-(3,5-difluorophenyl)-2-hydroxyacetamido)-2-methylphenyl)-N-(oxetan-3-yl)pyrazine-2-carboxamide], the concentration for half-maximal inhibition (IC50) lay in the range of 1 to 2 µM.
Regarding `Cc1cc(NC(=O)C(O)c2cc(F)cc(F)c2)ccc1-c1cnc(N)c(C(=O)NC2COC2)n1` (centres unmarked) [Example 143, 3-amino-6-(4-(2-(3,5-difluorophenyl)-2-hydroxyacetamido)-2-methylphenyl)-N-(oxetan-3-yl)pyrazine-2-carboxamide], the 50% inhibitory concentration (IC50) lay within 0.026 to 0.05 µM.
For `CC(C)NC(=O)c1nc(-c2ccc(NC(=O)C(O)c3cc(F)cc(F)c3)cc2Cl)cnc1N` (centres unmarked) [Example 162, 3-amino-6-(2-chloro-4-(2-(3,5-difluorophenyl)-2-hydroxyacetamido)phenyl)-N-isopropylpyrazine-2-carboxamide] the value was 0.101 to 0.25 µM; for `CC(C)NC(=O)c1nc(-c2ccc(NC(=O)C(O)c3cc(F)cc(F)c3)cc2Cl)cnc1N` (centres unmarked) [Example 163, 3-amino-6-(2-chloro-4-(2-(3,5-difluorophenyl)-2-hydroxyacetamido)phenyl)-N-isopropylpyrazine-2-carboxamide], 0.051 to 0.1 µM; for `Nc1ncc(-c2ccc(NC(=O)C(O)c3cc(F)cc(F)c3)cc2Cl)nc1C(=O)NC1CC1` (centres unmarked) [Example 166, 3-amino-6-(2-chloro-4-(2-(3,5-difluorophenyl)-2-hydroxyacetamido)phenyl)-N-cyclopropyl-pyrazine-2-carboxamide], 0.026 to 0.05 µM.
Turning to `Nc1ncc(-c2ccc(NC(=O)C(O)c3cc(F)cc(F)c3)cc2Cl)nc1C(=O)NC1CC1` (centres unmarked) [Example 167], the 50% inhibitory concentration (IC50) was in the range of 0.101 to 0.25 µM.

A word on the IC50: it is the point on the concentration scale where inhibition reaches its midpoint.
